Measurements: publication PMC10062609 (PLOS ONE, 2023)

Target: Nicotinamide phosphoribosyltransferase (NAMPT) (Homo sapiens, UniProt P43490)
Assay: biochemical

Sequence of Nicotinamide phosphoribosyltransferase (NAMPT) (P43490 whole entry): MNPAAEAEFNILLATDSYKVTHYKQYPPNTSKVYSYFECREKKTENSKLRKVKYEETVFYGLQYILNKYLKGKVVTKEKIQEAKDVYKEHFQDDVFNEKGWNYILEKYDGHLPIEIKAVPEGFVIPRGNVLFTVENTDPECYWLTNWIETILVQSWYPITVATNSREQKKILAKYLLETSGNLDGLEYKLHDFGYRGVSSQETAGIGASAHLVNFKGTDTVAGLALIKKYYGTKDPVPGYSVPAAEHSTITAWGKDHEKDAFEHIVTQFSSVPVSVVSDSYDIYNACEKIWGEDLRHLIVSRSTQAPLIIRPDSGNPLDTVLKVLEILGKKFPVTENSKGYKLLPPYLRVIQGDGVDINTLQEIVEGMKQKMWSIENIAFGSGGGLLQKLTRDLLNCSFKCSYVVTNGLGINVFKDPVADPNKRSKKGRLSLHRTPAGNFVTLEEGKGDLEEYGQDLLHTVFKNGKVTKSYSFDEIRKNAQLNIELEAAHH

SMILES	EC50
C[C@@H]1O[C@@H](Oc2c(-c3cc(O)c(O)c(O)c3)oc3cc(O)cc(O)c3c2=O)[C@H](O)[C@H](O)[C@H]1O [compound 2, Myricitrin]	6.18 µM
O=c1cc2oc3cc(O)c(O)cc3c(-c3ccccc3O)c-2cc1O [compound 20, NSC9037]	3.58 µM
